Several values for one entry are separate records, joined by “and”; a condition that tells them apart may be missing. Equal values may be shown once.

We go through two compounds from patent US20260306644A1, “ANTIBODY RECRUITING MOLECULES FOR THE TREATMENT OF CORONAVIRUS DISEASE-19” (priority 2023, published 2026).

In one assay the target is SARS-CoV-2 Spike protein (Severe acute respiratory syndrome coronavirus 2, UniProt P0DTC2). The experiment in a line: Ternary binding of SARS-CoV-2 Spike protein (293T cells expressing Spike-GFP, IgG-AF647, flow cytometry). The assay is classed as cell-based. The settings on record: 293T cells expressing Spike-GFP; IgG-AF647 10 μg/ml; repeat values/batches listed separately; read-out: SARS-CoV-2 Ternary binding EC50. In general terms: In flow cytometry, cells or beads pass a laser one at a time.

Assay [1] deals with T1, SARS-CoV-2 Spike A (wild-type) (Severe acute respiratory syndrome coronavirus 2, UniProt P0DTC2).
T1 construct: purchased Meso Scale Diagnostics, LLC V-PLEX SARS-CoV-2 Panel 13 (ACE2) Kit / Panel 23 (ACE2) Kit
Briefly: MSD ACE2 competition assay (inhibition of Spike binding with ACE2, ECL), A (wild-type). The following applies: IC50 Wild Type, Wild Type Spike.

One may read the EC50 as the concentration giving half of the maximal effect. By IC50 is commonly meant the concentration needed to halve the response being measured. Low readings indicate greater potency in that assay, high ones weaker potency in that assay. With `CC[C@H](C)[C@H](NC(=O)[C@H](CC(C)C)NC(=O)[C@H](CC(=O)O)NC(=O)[C@H](CO)NC(=O)[C@@H](NC(=O)[C@H](CCCNC(=N)N)NC(=O)[C@H](CCSC)NC(=O)[C@H](CO)NC(=O)[C@H](C)NC(=O)[C@H](CCC(=O)O)NC(=O)[C@H](C)NC(=O)[C@H](Cc1c[nH]cn1)NC(=O)CNC(=O)[C@H](CC(C)C)NC(=O)[C@H](CCC(=O)O)NC(=O)[C@H](CC(=O)O)NC(=O)[C@H](CC(C)C)NC(=O)[C@H](CC(C)C)NC(=O)[C@H](CCCNC(=N)N)NC(=O)[C@H](CCSC)NC(=O)[C@@H](NC(=O)[C@H](CCC(=O)O)NC(=O)[C@H](Cc1ccc(O)cc1)NC(=O)[C@@H](NC(=O)[C@H](CCCCN)NC(=O)[C@H](CCC(N)=O)NC(=O)[C@H](CC(C)C)NC(=O)[C@@H](NC(=O)[C@H](Cc1c[nH]c2ccccc12)NC(=O)[C@H](CCC(=O)O)NC(=O)[C@H](CCCCN)NC(=O)[C@H](CC(=O)O)NC(C)=O)[C@@H](C)CC)[C@@H](C)CC)[C@@H](C)CC)C(C)C)C(=O)N[C@@H](Cc1ccc(O)cc1)C(=O)N[C@@H](CCC(=O)O)C(=O)N[C@@H](Cc1ccccc1)C(=O)N[C@@H](CCSC)C(=O)N[C@@H](CCCCN)C(=O)N[C@@H](CCCCN)C(=O)NCC(=O)N[C@@H](CC(=O)O)C(=O)N[C@H]1CSSC[C@@H](C(=O)N[C@H](C(=O)O)[C@@H](C)O)NC(=O)[C@H](Cc2c[nH]c3ccccc23)NC(=O)[C@H](C(C)C)NC(=O)[C@H](CC(C)C)NC(=O)[C@H](CCC(=O)O)NC(=O)CNC(=O)[C@H](CC(C)C)NC(=O)[C@H](Cc2c[nH]cn2)NC(=O)[C@H](Cc2c[nH]c3ccccc23)NC(=O)[C@H](C)NC1=O` [Compound 112], the EC50 on SARS-CoV-2 Spike protein was 0.45 nM and 0.55 nM. Moreover, in assay [1], the IC50 was 40.7 nM.
For the compound `CC[C@H](C)[C@H](NC(=O)[C@H](CC(C)C)NC(=O)[C@H](CC(=O)O)NC(=O)[C@H](CO)NC(=O)[C@@H](NC(=O)[C@H](CCCNC(=N)N)NC(=O)[C@H](CCSC)NC(=O)[C@H](CO)NC(=O)[C@H](C)NC(=O)[C@H](CCC(=O)O)NC(=O)[C@H](C)NC(=O)[C@H](Cc1c[nH]cn1)NC(=O)CNC(=O)[C@H](CC(C)C)NC(=O)[C@H](CCC(=O)O)NC(=O)[C@H](CC(=O)O)NC(=O)[C@H](CC(C)C)NC(=O)[C@H](CC(C)C)NC(=O)[C@H](CCCNC(=N)N)NC(=O)[C@H](CCSC)NC(=O)[C@@H](NC(=O)[C@H](CCC(=O)O)NC(=O)[C@H](Cc1ccc(O)cc1)NC(=O)[C@@H](NC(=O)[C@H](CCCCN)NC(=O)[C@H](CCC(N)=O)NC(=O)[C@H](CC(C)C)NC(=O)[C@@H](NC(=O)[C@H](Cc1c[nH]c2ccccc12)NC(=O)[C@H](CCC(=O)O)NC(=O)[C@H](CCCCN)NC(=O)[C@H](CC(=O)O)NC(=O)[C@@H](NC(=O)[C@@H]1CSSC[C@H](NC(=O)[C@H](CC(=O)O)NC(C)=O)C(=O)N[C@@H](C)C(=O)N[C@@H](Cc2c[nH]c3ccccc23)C(=O)N[C@@H](Cc2c[nH]cn2)C(=O)N[C@@H](CC(C)C)C(=O)NCC(=O)N[C@@H](CCC(=O)O)C(=O)N[C@@H](CC(C)C)C(=O)N[C@@H](C(C)C)C(=O)N[C@@H](Cc2c[nH]c3ccccc23)C(=O)N1)[C@@H](C)O)[C@@H](C)CC)[C@@H](C)CC)[C@@H](C)CC)C(C)C)C(=O)N[C@@H](Cc1ccc(O)cc1)C(=O)N[C@@H](CCC(=O)O)C(=O)N[C@@H](Cc1ccccc1)C(=O)N[C@@H](CCSC)C(=O)N[C@@H](CCCCN)C(=O)N[C@@H](CCCCN)C(=O)O` [Compound 121], the EC50 on SARS-CoV-2 Spike protein was 0.83 nM and 0.78 nM. In addition, in assay [1], the IC50 turned out to be 10.8 nM.
